Results as given in patent US20220195533A1, “ARYL HYDROCARBON RECEPTOR (AHR) ACTIVATION SIGNATURE AND METHODS FOR DETERMINING AHR SIGNALING STATUS” (DEUTSCHES KREBSFORSCHUNGSZENTRUM STIFTUNG DES OFFENTLICHEN …, priority 2019, published 2022).

System: AHR
Test: AHR signature gene set testing in tumor tissue of advanced melanoma patients after immune checkpoint inhibition
Format: in vivo, human
Conditions: tumor tissue of advanced melanoma patients after treatment (GSE91061), FIG. 31C
Text: The eBayes adjusted moderated t-statistic was applied for differential gene expression using limma (Ritchie, M E, et al. (2015). limma powers differential expression analyses for RNA-sequencing and microarray studies. Nucleic Acids Research 43(7), e47) and limma-trend (Phipson, B, et al. (2016). Robust hyperparameter estimation protects against hypervariable genes and improves power to detect differential expression. Annals of Applied Statistics 10(2), 946-963) or the limma RNA-seq pipeline (Ritchie, M E, et al. (2015). limma powers differential expression analyses for RNA-sequencing and microarray studies. Nucleic Acids Research 43(7), e47). Batch effects, when present, were accounted for in the linear regression. Gene set testing of AHR activation was performed using roast (Wu, D., et al. (2010). ROAST: rotation gene set tests for complex microarray experiments. Bioinformatics 26, 2176-2182).
Using an AHR signature comprising of all the biomarkers in Table 1, allows the detection of AHR modulation caused by both direct and indirect AHR modulators in a cell type and ligand type independent fashion.

## Nivolumab: immune checkpoint inhibition; indirect modulation of AHR through immunotherapy
  modulation of AHR detected with AHR signature of all Table 1 biomarkers: indirect modulation of AHR
